Experiments:
db/db mice [1] = assay: Serum HDL and LDL/VLDL in db/db mice; assay type: in vivo; conditions: vs db-Veh
Description: Fasting blood glucose and serum lipid.

db/db mice [2] = assay: Echocardiography, body and heart weight in db/db mice; assay type: in vivo; conditions: 10 mg/kg/day i.p., four-weeks
Description: Echocardiography. Serial […] echocardiography was conducted under 2-3% isoflurane/oxygen anesthesia using a Visualsonic Vevo 770 system equipped with 30 MHz linear signal transducer (Toronto, Ontario, Canada). The mice were depilated as required for imaging and before placing on a 37° C. heated platform. Echo measurements were taken from at least three different cardiac cycles for each mouse. M-mode imaging from short-axis of the left ventricle (LV), using the papillary muscles for reference, was used to obtain measurements. Fractional shortening (FS %) and ejection fraction (EF %) were calculated as previously described.

C57Bl/6J wildtype hearts = assay: Ex vivo ischemia reperfusion, post-ischemia exposure in wildtype hearts; parameters: species or system mice
Description: Hearts undergoing ex vivo ischemia reperfusion protocol post-exposure with P7C3 (3 μM) were performed as defined above. Hearts were stabilized for 30 min before proceeding to the ischemic phase. Cardiac ischemia was induced by the pause in Krebs-Hanseleit buffer perfusion for 45 min. Reperfusion was induced with the induction of Krebs-Hanseleit buffer at a constant flow of ˜2.2 ml/min for 1 hour. Hearts that underwent P7C3 (3 μM) treatment received 1-hour reperfusion with P7C3 (3 μM) within the Krebs-Hanseleit buffer.

## OC(CNc1ccccc1)Cn1c2ccc(Br)cc2c2cc(Br)ccc21 (stereo not drawn) [P7C3, 3,6-Dibromo-a-[(phenylamino)methyl]-9H-carbazole-9-ethanol]
db/db mice [1]
  HDL lipoproteins level: significant increase
  LDL/VLDL lipoproteins level: significant decrease
db/db mice [2]
  ejection fraction (EF %): significantly increased
  fractional shortening (FS %): significantly increased
C57Bl/6J wildtype hearts; WT hearts perfused post-ischemia with P7C3 3 μM, 60 mins reperfusion
  overall ischemic injury (infarct): 22%
C57Bl/6J wildtype hearts; post-ischemic exposure, wildtype hearts
  reduction of overall infarct size compared with reperfusion alone: 2.5 fold

Reference: US20220370636A1, “NICOTINAMIDE ADENINE DINUCLEOTIDE ACTIVATOR AND USE THEREOF” (University of South Florida, priority 2021, published 2022)
